According to patent US20150031598A1, “NEMO BINDING DOMAIN FUSION PROTEINS” (Encode Bio, Inc., priority 2012, published 2015):
Ends that are not written are not given here.

How the values were obtained:
NF-κB signaling = test: TNFα-mediated SEAP expression in pNiFty-SEAP transfected HEK293 cells (NF-κB reporter); type: cell-based; settings: for block of TNFα-mediated SEAP expression (in words): pNiFty-SEAP transfected HEK293 cells
From the text: HEK293 cells were transfected with the plasmid pNiFty-SEAP which encodes for a secreted alkaline phosphatase (SEAP) whose expression is under control of an ELAM-1 composite promoter containing five NF-κB sites. Treatment of cells with TNFα causes activation of the IkB kinase complex and, in turn, NF-κB, resulting in SEAP expression. We verified that pNiFty-SEAP transfected HEK293 cells treated with the NBD Peptide (FIG. 2; FIG. 3, Panel B) blocked the expression of TNFα-mediated SEAP expression in a concentration-dependent manner with an IC50 of ˜60 μM. […] Treatment of cells with circularized NBD-MCoTI-II generated in bacteria (data not shown) or linear NBD-MCoTI-II generated by automated synthesis (FIG. 2; FIG. 3 Panel A) blocked TNFα-mediated SEAP expression, but not WT MCoTI-II (FIG. 2).

HEK293 cells = type: cell-based; settings: concentrations up to 1 μM
[1] = tested on: collagen-induced arthritis; test: Mouse collagen-induced arthritis (CIA) model, therapeutic mode; type: in vivo, male DBA/1J mice
Experimental: We next tested the efficacy of linear NBD-MCoTI-II in the mouse CIA model in therapeutic mode, a standard model for evaluating anti-arthritic activity. Mice were injected with collagen type II. CIA was induced in male DBA/1J mice by tail injection of Type II collagen (100 μg) mixed with complete Freund's adjuvant. On Day 21, a booster injection (i.p.) of collagen (100 μg)/incomplete Freund's adjuvant was administered. The severity of arthritis (arthritic index (AI)) was scored in each paw as follows: 0-no evidence of erythema and swelling, 1-erythema and mild swelling confined to the mid-foot (tarsals) or ankle joint, 2-erythema and mild swelling extending from the ankle to the mid-foot, 3-erythema and moderate swelling extending from the ankle to the metatarsal joints and 4-erythema and severe swelling encompass the ankle, foot and digits. AI scores were measured in each paw and summed (maximum score of 16 per mouse). After the AI score reached an average of 3.1 on Day 27, mice were separated into three treatment groups and administered (i.p.) daily: saline, 100 μg/kg NBD-MCoTI-II and 3 mg/kg dexamethasone for 14 days. AI scores, body weights, paw thickness and any signs of distress were monitored daily. […] The marked inhibition of arthritic disease progression by NBD-MCoTI-II persisted for the study duration. […] The effect lasted the study duration.
To further assess the efficacy of linear NBD-MCoTI-II we performed histopathology analysis of the studies on the joints of CIA mice treated with saline and NBD-MCoTI-II (100 μg/kg).
To compare the efficacy of NBD-MCoTI-II to existing anti-arthritic drugs we calculated a composite histopathology score for the CIA mice from the individual scores of inflammation, pannus, cartilage damage and bone resorption by adding them. Shown in FIG. 9 is a comparison of the composite histopathology scores for NBD-MCoTI-II (100 μg/kg) to published values for the existing anti-arthritic drugs Enbrel™ (15 mg/kg), Orencia™ (5 mg/kg), Xeljanz™ (10 mg/kg) and INCB028050 (15/mg). Data are presented as a percent of the composite histopathology scores for CIA mice treated with saline. […] J Immunol 184:5298-307, the contents of each of which are herein incorporated by reference in their entireties). […] Thus, linear NBD-MCoTI-II prevented joint damage while the other anti-arthritic drugs were only capable of reducing joint damage.
Splenomegaly is associated with arthritis and has been observed in the mouse CIA model [(see, e.g., Foell J L et al., (2004) Engagement of the CD137 (4-1BB) costimulatory molecule inhibits and reverses the autoimmune process in collagen-induced arthritis and establishes lasting disease resistance. Immunology 113:89-98; and Liu Y et al., (2011) Therapeutic effects of TACI-Ig on collagen-induced arthritis by regulating T and B lymphocytes function in DBA/1 mice. Eur J Pharmacol 654:304-14); the contents of each of which are herein incorporated by reference in their entirities)].
Mouse body weights were unchanged relative to saline controls.

[2] = tested on: carrageenan-induced paw edema; test: Mouse carrageenan paw edema (CPE) model; type: in vivo; settings: for reduction of swelling: 12 hours post-carrageenan
Experimental: Anti-inflammatory activity of linear NBD-MCoTI-II was tested at two doses (5 and 25 μg/kg) in the mouse CPE model. Mice were administered (i.p.) either NBD-MCoTI-II, dexamethasone (10 mg/kg) or saline one hour prior to inducing edema by carrageenan injection into the subplantar region of the left hind foot. Swelling was then measured by water displacement method at 2, 4, 6 and 12 hours post-carrageenan injection. […] At 12 hours, 5 and 25 μg/kg NBD MCoTI-II reduced swelling 30 and 50%, respectively (FIG. 5). […] (FIG. 5).

[3] = biological target: NEMO (nuclear factor kB essential modulator) (UniProt Q9Y6K9); test: cell-based or functional assay
[4] = biological target: NEMO (nuclear factor kB essential modulator) (UniProt Q9Y6K9 1-419); test: cell-based or functional assay
Sequence of NEMO (nuclear factor kB essential modulator) (UniProt Q9Y6K9 1-419) (Q9Y6K9 whole entry): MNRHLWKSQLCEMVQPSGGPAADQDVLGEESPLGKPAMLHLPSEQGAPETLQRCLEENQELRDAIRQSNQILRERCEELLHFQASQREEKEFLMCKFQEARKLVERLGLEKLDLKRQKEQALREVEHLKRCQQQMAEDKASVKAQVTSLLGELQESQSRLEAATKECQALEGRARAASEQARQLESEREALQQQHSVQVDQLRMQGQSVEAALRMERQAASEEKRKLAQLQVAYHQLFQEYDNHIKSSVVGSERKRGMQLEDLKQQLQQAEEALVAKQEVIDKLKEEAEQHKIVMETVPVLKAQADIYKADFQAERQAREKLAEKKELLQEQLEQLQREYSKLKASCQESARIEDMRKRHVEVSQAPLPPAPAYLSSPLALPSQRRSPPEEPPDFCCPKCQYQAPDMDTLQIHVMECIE

Sequence of NEMO (nuclear factor kB essential modulator) (UniProt Q9Y6K9) (Q9Y6K9 whole entry): as above

With “FTALDWSWLQTCPKILKKCRRDSDCPGACICRGNGYC [linear NBD-MCoTI-II]” the “potency relative to NBD peptide, inhibition of NF-κB signaling” value (NF-κB signaling; cell-based assay, versus NBD Peptide) was 10^6 fold, the “block of TNFα-mediated SEAP expression (in words)” value (from here on “block … (in words)”) (NF-κB signaling) was “blocked” and the overt cellular toxicity (HEK293 cells) was “no overt cellular toxicity”. For the same molecule, the “joint histopathology scores (inflammation, pannus, cartilage damage, bone resorption)” value ([1]; 100 μg/kg) was “at or near zero”, the “progression of arthritis (arthritic index score)” value ([1]; 100 μg/kg i.p. daily, by Day 29, p<0.01, persisted for the study duration) was “halted the progression of arthritis” and the “increase in paw thickness” value ([1]; 100 μg/kg i.p. daily, p<0.01, lasted the study duration) was “blocked the increase in paw thickness”. The composite histopathology score ([1]; 100 μg/kg, percent of saline-treated CIA mice) was “almost zero”, the “kidney, liver and intestine weights” value ([1]; CIA mice) was “within normal ranges” and the “laboratory blood analysis (blood chemistry, kidney function tests, ALT, AST, blood cell counts)” value ([1]; CIA mice) was “within normal ranges”. For the same molecule, the “signs of toxicity or distress” value ([1]; CIA mice, 100 μg/kg i.p. daily for 14 days) was “no obvious signs of toxicity or distress”, the spleen weight ([1]; CIA mice, saline 135±27 mg, p<0.01) was 100 ± 17 mg and the “efficacy relative to CP690550 (Xeljanz) and anti-TNF Ab control in ameliorating arthritic symptoms” value ([1]; comparison with Milici 2008) was “at least as effective”. The mouse body weights ([1]; relative to saline controls) was “unchanged”, the “in vivo potency relative to NBD Peptide” value ([2]; 5 μg/kg NBD-MCoTI-II similar to NBD Peptide 25 mg/kg (di Meglio 2005)) was 5000 fold and the reduction of swelling ([2]; 5 μg/kg i.p.) was 30%. The reduction of swelling ([2]; 25 μg/kg i.p.) was 50% and the “swelling (in words)” value ([2]; 5 and 25 μg/kg i.p., 4, 6 and 12 hours post-carrageenan) was “significantly reduced swelling”.

In the case of “WT MCoTI-II: wild-type MCoTI-II (SEQ ID NO:3), cystine-knot microprotein, trypsin inhibitor subfamily (MCGSGSDGGVCPKILKKCRRDSDCPGACICRGNGY; disulfide (positions not given here); not fully specified; listed as Homo sapiens) [reference compound]”, the “block … (in words)” value (NF-κB signaling) is reported as “not” and the overt cellular toxicity (HEK293 cells) is reported as “no overt cellular toxicity”.

“circularized NBD-MCoTI-II: circular, native-folded NBD-MCoTI-II generated in bacteria; sequence after processing SEQ ID NO:10 (cyclo(FTALDWSWLQTCPKILKKCRRDSDCPGACICRGNGYC); ends not checked; also: native-folded, disulfide pairing not given here)” was tested, and the “block … (in words)” value (NF-κB signaling) was “blocked”.

In the case of FTALDWSWLQT (peptide, part only; not given: cell penetrating peptide, part only, not fully specified) [NBD Peptide], the IC50 for blocking TNFα-mediated SEAP expression (NF-κB reporter, pNiFty-SEAP transfected HEK293 cells) [3] is reported as 60 µM.

B1: linear NBD-MCoTI-II generated by automated synthesis (designed binder)
chain: FTALDWSWLQTCPKILKKCRRDSDCPGACICRGNGYC
modifications: ends and bridges not checked; also: folded in glutathione buffers, disulfides not placed
In the case of B1, the “IC50 for blocking TNFα-mediated SEAP expression (NF-κB reporter, pNiFty-SEAP transfected HEK293 cells)” value [4] is reported as 60 pM.
